These results are taken from patent US20230190851A1, “PLANT COMPOUNDS FOR TREATING ALZHEIMER'S DISEASE” (RRW B.V., priority 2020, published 2023).

The test relates to C. elegans nematode strain with inducible amyloid-β accumulation (CL4176). As to the kind of experiment: Alzheimer's disease paralysis assay, C. elegans strain with inducible amyloid-β accumulation. The class given is in vivo. Conditions: strain CL4176, heat shock 25° C., counted approximately every 24 h; combination effect after 71 h, persisted for 95 h. An excerpt:
These strains accumulate amyloid-β peptides that form plaques in the nematodes and lead to paralysis of the animals. In certain strains, such as strain CL4176, Aβ accumulation occurs only in response to heat shock. Thus, the Alzheimer's disease pattern is inducible in these strains. The number of paralyzed nematodes after a certain period of time following induction of Aβ accumulation indicates the extent of Alzheimer's disease. Thus, the effect of certain substances to which the nematodes are exposed on the number of paralyzed animals is a measure of the anti-Alzheimer effect of these substances.
Nematodes of strain CL4176 were synchronized at the young larval stage and allowed to grow to the L4 stage on normal growth medium for 72 h at 16° C. Then the nematodes were exposed to the test substance and the temperature was increased to 25° C. This heat shock induced Aβ accumulation, simulating the onset of Alzheimer's disease. Approximately every 24 h, the number of animals that were still mobile and those that were paralyzed as a result of Aβ accumulation was determined.

As for `C=C(C)[C@@H]1CCC(C)=C[C@H]1c1c(O)cc(CCCCC)cc1O` [CBD, cannabidiol], the “number of mobile / paralyzed animals after induction of Aβ accumulation” value is recorded as “only little effect”.
